From patent US20230339890A1, “AMINO ALCOHOL COMPOUNDS AND USES THEREOF” (Kineta, Inc., priority 2020, published 2023)

Each molecule was assayed against Recombinant human CYP51A1 (lanosterol-14a-demethylase) (Homo sapiens (Human), UniProt Q16850) (assay: Inhibition of CYP51A1, fluorescent substrate BOMCC). Conditions: recombinant human CYP51A1 coexpressed with CYP reductase in bacterial membranes, 8-point concentration-response, read-out: CYP51 IC50.
Format: biochemical
Excerpt: Method: Recombinant human CYP51A1 (lanosterol-14a-demethylase) enzyme was coexpressed with CYP reductase in bacterial membranes and the fluorescent substrate BOMCC (a nonnatural substrate that causes increases in fluorescence upon CYP51A1-dependent demethylation) was used to obtain 8-point dose concentration-response curves for each compound.

Recombinant human CYP51A1 (lanosterol-14a-demethylase), sequence (Q16850 whole entry): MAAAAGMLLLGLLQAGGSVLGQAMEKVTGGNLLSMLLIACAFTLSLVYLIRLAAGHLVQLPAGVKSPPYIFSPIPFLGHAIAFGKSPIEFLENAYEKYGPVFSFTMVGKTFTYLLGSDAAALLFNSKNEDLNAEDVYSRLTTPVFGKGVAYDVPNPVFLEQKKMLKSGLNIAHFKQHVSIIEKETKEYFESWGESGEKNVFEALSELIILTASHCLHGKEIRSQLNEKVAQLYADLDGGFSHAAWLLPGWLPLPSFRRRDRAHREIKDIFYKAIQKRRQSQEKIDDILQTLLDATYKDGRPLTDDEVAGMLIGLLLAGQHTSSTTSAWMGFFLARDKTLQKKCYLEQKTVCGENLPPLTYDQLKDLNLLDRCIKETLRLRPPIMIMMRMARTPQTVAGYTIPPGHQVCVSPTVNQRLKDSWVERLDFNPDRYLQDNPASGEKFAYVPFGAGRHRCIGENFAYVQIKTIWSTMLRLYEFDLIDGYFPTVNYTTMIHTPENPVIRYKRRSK

Row | Structure (SMILES) | IC50 [nM]
1 | CCCN(C[C@@H](O)c1cccnc1)C(=O)C(C)c1ccc(C(F)(F)F)nc1 (stereo partly drawn) [compound 132, N-[(2S)-2-hydroxy-2-(3-pyridyl)ethyl]-N-propyl-2-[6-(trifluoromethyl)-3-pyridyl]propanamide] | > 1000
2 | CC(C)(C)OC(=O)N(CCc1ccc2ccccc2c1)CC(O)c1cccnc1 (stereo not shown) [compound 137, Tert-butyl N-[2-hydroxy-2-(3-pyridyl)ethyl]-N-[2-(2-naphthyl)ethyl]carba mate] | ≤ 100
3 | CC(C)(C)OC(=O)NCCCCCN(C[C@@H](O)c1cccnc1)C(=O)Cc1ccc(C(F)(F)F)nc1 [compound 141, tert-butyl N-[5-[[(2S)-2-hydroxy-2-(3-pyridyl)ethyl]-[2-[6-(trifluoromethyl)-3-pyridyl]acetyl]amino]pentyl]carbamate] | ≤ 100
4 | CC(C)(C)OC(=O)NCCN(C[C@@H](O)c1cccnc1)C(=O)Cc1ccc(C(F)(F)F)nc1 [compound 143, tert-butyl N-[2-[[(2S)-2-hydroxy-2-(3-pyridyl)ethyl]-[2-[6-(trifluoromethyl)-3-pyridyl]acetyl]amino]ethyl]carbamate] | ≤ 100
5 | CC(C)(C)OC(=O)NC1CCC(CN(C[C@@H](O)c2cccnc2)C(=O)Cc2ccc(C(F)(F)F)nc2)CC1 (stereo partly drawn) [compound 145, tert-butyl N-[4-[[[(2S)-2-hydroxy-2-(3-pyridyl)ethyl]-[2-[6-(trifluoromethyl)-3-pyridyl]acetyl]amino]methyl]cyclohexyl] carbamate] | 100 to 1000
6 | CC(C)(C)OC(=O)NC1CCC(CN(C[C@@H](O)c2cccnc2)C(=O)Cc2ccc(C(F)(F)F)nc2)CC1 (stereo partly drawn) [compound 146, tert-butyl N-[4-[[[(2S)-2-hydroxy-2-(3-pyridyl)ethyl]-[2-[6-(trifluoromethyl)-3-pyridyl]acetyl]amino]methyl]cyclohexyl] carbamate] | ≤ 100

Other lines, results leading:

Row | IC50 [nM] | Structure (SMILES)
7 | ≤ 100 | CCCN(C[C@@H](O)c1cccnc1)C(=O)C1Cc2cc(Cl)c(Br)cc2C1 (stereo partly drawn) [compound 131, 5-bromo-6-chloro-N-[(2S)-2-hydroxy-2-(3-pyridyl)ethyl]-N-propyl-indane-2-carboxamide]
8 | 100 to 1000 | CCCN(C[C@@H](O)c1cccnc1)C(=O)C1Cc2cc(C#N)c(C#N)cc2C1 [compound 133, 5,6-dicyano-N-[(2S)-2-hydroxy-2-(3-pyridyl)ethyl]-N-propyl-indane-2-carboxamide]
9 | ≤ 100 | CCCN(C[C@@H](O)c1cccnc1)C(=O)C1Cc2cc(Cl)c(C#N)cc2C1 (stereo partly drawn) [compound 134, 5-chloro-6-cyano-N-[(2S)-2-hydroxy-2-(3-pyridyl)ethyl]-N-propyl-indane-2-carboxamide]
10 | ≤ 100 | CCCN(C[C@@H](O)c1cccnc1)C(=O)N1Cc2cc(Cl)c(Br)cc2C1 [compound 135, 5-bromo-6-chloro-N-[(2S)-2-hydroxy-2-(3-pyridyl)ethyl]-N-propyl-isoindoline-2-carboxamide]
11 | ≤ 100 | CCCN(CC(O)c1cnccc1N)C(=O)Cc1ccc(C(F)(F)F)nc1 (stereo not shown) [compound 136, N-[2-(4-amino-3-pyridyl)-2-hydroxyethyl]-N-propyl-2-[6-(trifluoromethyl)-3-pyridyl]acetamide]
12 | 100 to 1000 | CC(C)(C)OC(=O)N(CCc1ccc(Cl)c(Cl)c1)CC(O)c1cccnc1 (stereo not shown) [compound 138, Tert-butyl N-[2-(3,4-dichlorophenyl)ethyl] -N-[2-hydroxy-2-(3-pyridyl)ethyl]carbam ate]
13 | ≤ 100 | CC(C)(C)OC(=O)NCCCCCN(CC(O)c1cccnc1)C(=O)Cc1ccc(Cl)c(Cl)c1 (stereo not shown) [compound 139, tert-butyl N-[5-[[2-(3,4-dichlorophenyl)acetyl]-[2-hydroxy-2-(3-pyridyl)ethyl]amino]pentyl]carbamate]
14 | ≤ 100 | CC(C)(C)OC(=O)NCCCN(C[C@@H](O)c1cccnc1)C(=O)Cc1ccc(C(F)(F)F)nc1 [compound 140, tert-butyl N-[3-[[(2S)-2-hydroxy-2-(3-pyridyl)ethyl]-[2-[6-(trifluoromethyl)-3-pyridyl]acetyl]amino]propyl]carbamate]
15 | ≤ 100 | CCCN(C[C@H](O)c1cccnc1)C(=O)Cc1ccc2ccccc2c1 [compound 147, N-[(2R)-2-hydroxy-2-(3-pyridyl)ethyl]-2-(2-naphthyl)-N-propyl-acetamide]

What follows are molecules tested on TDP-43-expressing yeast (assay: Yeast TDP-43 model viability (resazurin-reduction endpoint)). Conditions: 2-fold serial dilution applied for 24 hours.
Format: cell-based
Procedure: (§1) (FIG. 1A) Structure of the Erg11 inhibitor and anti-fungal, fluconazole. […] A 2-fold serial dilution of fluconazole was applied to TDP-43-expressing yeast for 24 hours prior to analysis. (FIG. 1C) Wild-type yeast cultures were treated with fluconazole for eight hours prior to HPLC analysis for lanosterol and ergosterol. Data are expressed as the area under the curve (AUC) normalized to cell mass based on optical density of cultures at 600 nm.
The toxic gain of function features of TDP-43 can be faithfully recapitulated in the simple model organism, budding yeast, where the protein also localizes to stress granules. […] The yeast model thus provides a robust cell-based screening platform for small molecules capable of ameliorating toxicity. To validate compounds from such phenotypic screens, it is imperative to test compounds in a mammalian neuronal context. In an effort to develop TDP-43-related mammalian models of neuron loss that occurs in ALS and FTD, primary cultures of rat cortical neurons were transfected with human wild type or Q331K mutant TDP-43. These cells were compared to cells which received an empty expression vector control. […] In the experiments described in this example, this model system is used to interrogate new therapeutic approaches to ameliorate TDP-43 toxicity.
Fluconazole is an antifungal known to inhibit Erg11, the yeast lanosterol 14-alpha demethylase (FIG. 1B). […]

Row | Structure (SMILES) | viability of TDP-43-expressing yeast
16 | OC(Cn1cncn1)(Cn1cncn1)c1ccc(F)cc1F [fluconazole] | rescues viability

Same assay, conditions: 2-fold serial dilution applied for 24 hours, listed as Fluconazole

Row | Structure (SMILES) | viability of TDP-43-expressing yeast
17 | OC(Cn1cncn1)(Cn1cncn1)c1ccc(F)cc1F [fluconazole] | restored viability

The molecules below were run on Erg11 (assay: HPLC analysis of lanosterol and ergosterol in wild-type yeast cultures). Conditions: wild-type yeast treated for eight hours.
Format: cell-based
Procedure: as §1
Fluconazole is an antifungal known to inhibit Erg11, the yeast lanosterol 14-alpha demethylase (FIG. 1B). […] CYP51A1 has also been known as lanosterol 14-alpha demethylase, which describes its function in removing the 14-alpha-methyl group from lanosterol to generate 4,4-dimethylcholesta-8(9), 14, 24-trien-3β-ol, which is a critical step in the cholesterol biosynthetic pathway.

Row | Structure (SMILES) | ergosterol (AUC normalized to cell mass) | lanosterol (AUC normalized to cell mass)
18 | OC(Cn1cncn1)(Cn1cncn1)c1ccc(F)cc1F [fluconazole] | reduces ergosterol | increase in the Erg11 substrate, lanosterol
